PubChem BioAssay AID1963854 (Molecular Pharmacology Branch, DTP, NCI, 2024)

Tested on: 186277-243-T-J2-PDC complex spheroid viability
Test: Anticancer human tumor 186277-243-T-J2-PDC patient-derived colon adenocarcinoma cell line growth inhibition [POLQ]
Conditions: for IC50: curve of first compound; for viability, T/C: stronger effect = lower value
How it was run: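 Growth inhibition in 3D: complex spheroids (tumor PDC, HUVEC, MSC) treated with POLQ inhibitor combinations; where Cmax unknown, highest tested concentration 10 microM, except SN-38 at 1 microM.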

[1] = second compound 0.0316 µM, first compound 0.0316 µM
[2] = second compound 0.0316 µM, first compound 0.1 µM
[3] = second compound 0.0316 µM, first compound 0.316 µM
[4] = second compound 0.0316 µM, first compound 1 µM
[5] = second compound 0.0316 µM, first compound 3.16 µM
[6] = second compound 0.0316 µM, first compound 10 µM
[7] = second compound 0.1 µM, first compound 0.0316 µM
[8] = second compound 0.1 µM, first compound 0.1 µM
[9] = second compound 0.1 µM, first compound 0.316 µM
[10] = second compound 0.1 µM, first compound 1 µM
[11] = second compound 0.1 µM, first compound 3.16 µM
[12] = second compound 0.1 µM, first compound 10 µM
[13] = second compound 0.316 µM, first compound 0.0316 µM
[14] = second compound 0.316 µM, first compound 0.1 µM
[15] = second compound 0.316 µM, first compound 0.316 µM
[16] = second compound 0.316 µM, first compound 1 µM
[17] = second compound 0.316 µM, first compound 3.16 µM
[18] = second compound 0.316 µM, first compound 10 µM
[19] = second compound 1 µM, first compound 0.0316 µM
[20] = second compound 1 µM, first compound 0.1 µM
[21] = second compound 1 µM, first compound 0.316 µM
[22] = second compound 1 µM, first compound 1 µM
[23] = second compound 1 µM, first compound 3.16 µM
[24] = second compound 1 µM, first compound 10 µM
[25] = second compound 3.16 µM, first compound 0.0316 µM
[26] = second compound 3.16 µM, first compound 0.1 µM
[27] = second compound 3.16 µM, first compound 0.316 µM
[28] = second compound 3.16 µM, first compound 1 µM
[29] = second compound 3.16 µM, first compound 3.16 µM
[30] = second compound 3.16 µM, first compound 10 µM
[31] = second compound 10 µM, first compound 0.0316 µM
[32] = second compound 10 µM, first compound 0.1 µM
[33] = second compound 10 µM, first compound 0.316 µM
[34] = second compound 10 µM, first compound 1 µM
[35] = second compound 10 µM, first compound 3.16 µM
[36] = second compound 10 µM, first compound 10 µM
[37] = second compound 0.0316 µM, first compound 0.000316 µM
[38] = second compound 0.0316 µM, first compound 0.001 µM
[39] = second compound 0.0316 µM, first compound 0.00316 µM
[40] = second compound 0.0316 µM, first compound 0.01 µM
[41] = second compound 0.1 µM, first compound 0.000316 µM
[42] = second compound 0.1 µM, first compound 0.001 µM
[43] = second compound 0.1 µM, first compound 0.00316 µM
[44] = second compound 0.1 µM, first compound 0.01 µM
[45] = second compound 0.316 µM, first compound 0.000316 µM
[46] = second compound 0.316 µM, first compound 0.001 µM
[47] = second compound 0.316 µM, first compound 0.00316 µM
[48] = second compound 0.316 µM, first compound 0.01 µM
[49] = second compound 1 µM, first compound 0.000316 µM
[50] = second compound 1 µM, first compound 0.001 µM
[51] = second compound 1 µM, first compound 0.00316 µM
[52] = second compound 1 µM, first compound 0.01 µM
[53] = second compound 3.16 µM, first compound 0.000316 µM
[54] = second compound 3.16 µM, first compound 0.001 µM
[55] = second compound 3.16 µM, first compound 0.00316 µM
[56] = second compound 3.16 µM, first compound 0.01 µM
[57] = second compound 10 µM, first compound 0.000316 µM
[58] = second compound 10 µM, first compound 0.001 µM
[59] = second compound 10 µM, first compound 0.00316 µM
[60] = second compound 10 µM, first compound 0.01 µM
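Note: spheroids exposed to compounds for seven days.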
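Throughout, for viability, T/C: 100% = DMSO vehicle control viability.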

For `O=C(Nc1ccc(O)c(NS(=O)(=O)c2ccc(F)cc2)c1)c1ccc(-c2ccccc2)cc1` + COC1C(OC(N)=O)C(O)C(Oc2ccc3c(O)c(NC(=O)c4ccc(O)c(CC=C(C)C)c4)c(=O)oc3c2C)OC1(C)C, the IC50 (second compound 0.0316 µM) was > 10000 nM, the IC50 (second compound 0.1 µM) was > 10000 nM and the IC50 (second compound 0.316 µM) was > 10000 nM. The IC50 (second compound 1 µM) was > 10000 nM, the IC50 (second compound 3.16 µM) was > 10000 nM and the IC50 (second compound 10 µM) was > 10000 nM. For the same molecule, the viability, T/C [1] was 89%, the viability, T/C [2] was 113% and the viability, T/C [3] was 107%. For the same molecule, the viability, T/C [4] was 99%, the viability, T/C [5] was 105% and the viability, T/C [6] was 94.3%. It also gave a viability, T/C [7] of 107%, a viability, T/C [8] of 105% and a viability, T/C [9] of 102%. For the same molecule, the viability, T/C [10] was 98.2%, the viability, T/C [11] was 107% and the viability, T/C [12] was 93.1%. It also gave a viability, T/C [13] of 96.2%, a viability, T/C [14] of 104% and a viability, T/C [15] of 116%. For the same molecule, the viability, T/C [16] was 104%, the viability, T/C [17] was 119% and the viability, T/C [18] was 96%. The viability, T/C [19] was 90.8%, the viability, T/C [20] was 101% and the viability, T/C [21] was 116%. For the same molecule, the viability, T/C [22] was 95%, the viability, T/C [23] was 125% and the viability, T/C [24] was 99.4%. The viability, T/C [25] was 90.1%, the viability, T/C [26] was 103% and the viability, T/C [27] was 111%. It also gave a viability, T/C [28] of 103%, a viability, T/C [29] of 105% and a viability, T/C [30] of 91.5%. It also gave a viability, T/C [31] of 91.9%, a viability, T/C [32] of 111% and a viability, T/C [33] of 103%. For the same molecule, the viability, T/C [34] was 103%, the viability, T/C [35] was 108% and the viability, T/C [36] was 101%.
With `Cn1ncnc1[C@H]1c2n[nH]c(=O)c3cc(F)cc(c23)N[C@@H]1c1ccc(F)cc1` + Cc1cccc(N(C)C(=O)C2C(O)CCN2c2nc(C)cc(C(F)(F)F)c2C#N)c1 the IC50 (second compound 0.0316 µM) was > 100 nM, the IC50 (second compound 0.1 µM) was > 100 nM and the IC50 (second compound 0.316 µM) was > 100 nM. For the same molecule, the IC50 (second compound 1 µM) was > 100 nM, the IC50 (second compound 3.16 µM) was > 100 nM and the IC50 (second compound 10 µM) was > 100 nM. It also gave a viability, T/C [37] of 101%, a viability, T/C [38] of 102% and a viability, T/C [39] of 104%. For the same molecule, the viability, T/C [40] was 106%, the viability, T/C [1] was 118% and the viability, T/C [2] was 120%. It also gave a viability, T/C [41] of 87.9%, a viability, T/C [42] of 99.4% and a viability, T/C [43] of 113%. The viability, T/C [44] was 106%, the viability, T/C [7] was 113% and the viability, T/C [8] was 119%. The viability, T/C [45] was 90.3%, the viability, T/C [46] was 92.6% and the viability, T/C [47] was 102%. The viability, T/C [48] was 115%, the viability, T/C [13] was 145% and the viability, T/C [14] was 122%. It also gave a viability, T/C [49] of 89%, a viability, T/C [50] of 105% and a viability, T/C [51] of 107%. For the same molecule, the viability, T/C [52] was 117%, the viability, T/C [19] was 119% and the viability, T/C [20] was 111%. It also gave a viability, T/C [53] of 101%, a viability, T/C [54] of 106% and a viability, T/C [55] of 111%. The viability, T/C [56] was 113%, the viability, T/C [25] was 103% and the viability, T/C [26] was 105%. It also gave a viability, T/C [57] of 99.5%, a viability, T/C [58] of 92.8% and a viability, T/C [59] of 95.8%. The viability, T/C [60] was 116%, the viability, T/C [31] was 113% and the viability, T/C [32] was 113%.
In the case of `Cn1ncnc1[C@H]1c2n[nH]c(=O)c3cc(F)cc(c23)N[C@@H]1c1ccc(F)cc1` + Nc1ccc(C#CCN(C(=O)Cc2ncc(C(F)(F)F)cc2C(F)(F)F)c2ccc(F)cc2)nn1, the IC50 (second compound 0.0316 µM) is reported as > 100 nM, the IC50 (second compound 0.1 µM) is reported as > 100 nM and the IC50 (second compound 0.316 µM) is reported as > 100 nM. The IC50 (second compound 1 µM) was > 100 nM, the IC50 (second compound 3.16 µM) was > 100 nM and the IC50 (second compound 10 µM) was > 100 nM. It also gave a viability, T/C [37] of 101%, a viability, T/C [38] of 90.9% and a viability, T/C [39] of 110%. For the same molecule, the viability, T/C [40] was 113%, the viability, T/C [1] was 130% and the viability, T/C [2] was 124%. For the same molecule, the viability, T/C [41] was 103%, the viability, T/C [42] was 101% and the viability, T/C [43] was 111%. It also gave a viability, T/C [44] of 105%, a viability, T/C [7] of 125% and a viability, T/C [8] of 142%. It also gave a viability, T/C [45] of 87.5%, a viability, T/C [46] of 110% and a viability, T/C [47] of 102%. It also gave a viability, T/C [48] of 111%, a viability, T/C [13] of 119% and a viability, T/C [14] of 143%. For the same molecule, the viability, T/C [49] was 91.3%, the viability, T/C [50] was 116% and the viability, T/C [51] was 103%. The viability, T/C [52] was 106%, the viability, T/C [19] was 120% and the viability, T/C [20] was 126%. The viability, T/C [53] was 92.3%, the viability, T/C [54] was 111% and the viability, T/C [55] was 112%. For the same molecule, the viability, T/C [56] was 105%, the viability, T/C [25] was 116% and the viability, T/C [26] was 140%. It also gave a viability, T/C [57] of 93.4%, a viability, T/C [58] of 104% and a viability, T/C [59] of 106%. It also gave a viability, T/C [60] of 103%, a viability, T/C [31] of 117% and a viability, T/C [32] of 121%.
`C#Cc1c(F)ccc2cc(O)cc(-c3ncc4c(N5CC6CCC(C5)N6)nc(OCC56CCCN5CC(F)C6)nc4c3F)c12` (stereo not drawn) + Cc1cccc(N(C)C(=O)C2C(O)CCN2c2nc(C)cc(C(F)(F)F)c2C#N)c1 gave an IC50 (second compound 0.0316 µM) of 97.5 nM, an IC50 (second compound 0.1 µM) of 113 nM and an IC50 (second compound 0.316 µM) of 79.9 nM. The IC50 (second compound 1 µM) was 84.2 nM, the IC50 (second compound 3.16 µM) was 63.9 nM and the IC50 (second compound 10 µM) was 32.8 nM. For the same molecule, the viability, T/C [1] was 81.1%, the viability, T/C [2] was 49.3% and the viability, T/C [3] was 21.4%. It also gave a viability, T/C [4] of 8.81%, a viability, T/C [5] of 6.82% and a viability, T/C [6] of 4.22%. For the same molecule, the viability, T/C [7] was 80.7%, the viability, T/C [8] was 53.5% and the viability, T/C [9] was 21.9%. The viability, T/C [10] was 9.85%, the viability, T/C [11] was 6.56% and the viability, T/C [12] was 4.18%. The viability, T/C [13] was 86.9%, the viability, T/C [14] was 41% and the viability, T/C [15] was 16.9%. It also gave a viability, T/C [16] of 8.42%, a viability, T/C [17] of 6.35% and a viability, T/C [18] of 5.85%. For the same molecule, the viability, T/C [19] was 89.8%, the viability, T/C [20] was 43% and the viability, T/C [21] was 19.6%. For the same molecule, the viability, T/C [22] was 11%, the viability, T/C [23] was 6.21% and the viability, T/C [24] was 4.34%. For the same molecule, the viability, T/C [25] was 80.6%, the viability, T/C [26] was 30.4% and the viability, T/C [27] was 11.1%. For the same molecule, the viability, T/C [28] was 6.02%, the viability, T/C [29] was 6.21% and the viability, T/C [30] was 5.42%. It also gave a viability, T/C [31] of 51.6%, a viability, T/C [32] of 18.2% and a viability, T/C [33] of 11%. It also gave a viability, T/C [34] of 5.4%, a viability, T/C [35] of 4.3% and a viability, T/C [36] of 3.05%.
